How the values were obtained:
5TGM1.Bmx1 MM PCs = experiment: 5TGM1/KaLwRij mouse model of multiple myeloma, antibody after tumour cell inoculation; assay type: in vivo; conditions: for Reduction in MM tumour burden (BLI): 30 mg/kg s.c. every 3 days from 3 days post-inoculation, 4 weeks
Description: Targeting Grem1 in an immunocompetent murine model of systemic MM: C57BL/KaLwRij mice (6-8-week-old) were inoculated with 5×10^5 5TGM1.Bmx1 cells via tail vein injection. Three days post-inoculation with 5TGM1.Bmx1 MM PCs, KaLwRij mice were administered with 30 mg/kg Grem1-neutralising antibody Ab7326 or IgG control Ab101.4 (UCB-Pharma, UK) by subcutaneous (s.c.) injection. Mice were treated every 3 days for the duration of the 4-week model. Tumour burden was monitored weekly by BLI as previously described. At the end of the experiment, blood was collected by tail bleed, centrifuged at 2100 g for 10 min and serum collected. Serum paraprotein levels were analysed using the Hydragel 30 β1β2 kit (Sebia Electrophoresis, Georgia, USA) following the instructions of the manufacturer. The band corresponding to paraprotein was quantitated relative to serum albumin levels. (SAAMRI Animal Ethics SAM165)

Vil1-Grem1 mice = experiment: AOM mutagenesis in Vil1-Grem1 mice; assay type: in vivo, mouse; conditions: 30 mg/kg weekly antibody for three weeks before and after three 10 mg/kg weekly AOM doses
Source text: Aberrant epithelial Grem1 expression in Vil1-Grem1 mice promotes an epithelial stem/progenitor cell phenotype (Davis et al., 2015), and we hypothesised that these cells would be susceptible to somatic mutation. We used azoxymethane (AOM) administration to examine the effect of a mutagenic insult on untreated Vil1-Grem1 and anti-Grem1 treated Vil1Grem1 mice. AOM is a well-documented mutagen widely utilised in murine models to recapitulate spontaneous CRC carcinogenesis (Neufert and Neurath, 2007).
Mice were treated with three subcutaneous doses of 30 mg/kg weekly anti-Grem1 antibody followed by three intraperitoneal doses of 10 mg/kg weekly azoxymethane (AOM, Sigma) or vehicle (saline) prior to a further three weeks of 30 mg/kg weekly anti-Grem1 antibody. Treatment commenced at or from the age of 90 days onwards, which is late enough in the Vil1-Grem1 disease process to ensure expansion of the progenitor cell population and subsequent formation of ectopic crypt foci.

[1] = target: T1, BMP4/7-Gremlin-1 complexes (Homo sapiens, UniProt O60565); experiment: SMAD phosphorylation assay: displacement of BMP4/7 from Gremlin 1-BMP complexes; assay type: cell-based; conditions: BMP4/7 50 ng/ml
T1 sequence (O60565 25-184): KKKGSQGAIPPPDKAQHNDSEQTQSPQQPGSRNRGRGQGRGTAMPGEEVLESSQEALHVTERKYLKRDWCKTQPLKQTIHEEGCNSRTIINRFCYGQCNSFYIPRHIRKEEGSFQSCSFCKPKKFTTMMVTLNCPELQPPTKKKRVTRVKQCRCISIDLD
Description: Experiments were again performed using lung fibroblasts from idiopathic pulmonary fibrosis patients. rhBMP-2 or rhBMP 4/7 were preincubated with rhGremlin-1 for 1 hour at room temperature. The BMP-2- or BMP4/7-Gremlin-1 complexes were incubated with different concentrations of the anti-Gremlin-1 antibodies overnight at 4° C. Antibody concentrations represent the final concentration on the plate.

rhGrem1 = target: T2, rhGrem1 (Homo sapiens, UniProt O60565); experiment: Western blot of Smad1/5/9 phosphorylation in murine 4T1 breast cancer cells; assay type: cell-based, mouse; conditions: 10 ng/ml BMP2, 100 ng/ml rhGrem1 pre-incubated with antibody; vs isotype control
T2 sequence (O60565 25-184): T1 sequence (O60565 25-184)
Description: Murine 4T1 BrCa cells were seeded into 6-well plates and cultured until 80% confluent. Cells were starved in serum-free medium overnight, and then stimulated with indicated treatments for 2 hrs. Cell lysates were prepared and equivalent amounts of protein (50 μg) were separated on 10% sodium dodecyl sulphate-polyacrylamide gel electrophoresis (SDS-PAGE) gels and transferred to nitrocellulose membranes. Immunoblotting was performed with phospho-Smad1/5/9 antibodies (cell signalling technologies, 1:1000 dilution). Equal loading of protein samples was confirmed by blotting membranes with antibodies against β-actin (Sigma Aldrich, 1:2500 dilution). Proteins were visualised using the Odyssey Infrared Imaging System (LI-COR Bioscience, Lincoln, NE, USA).
As Grem1 is a known BMP-2/4/7 antagonist, we assessed the ability of UCB antibody Ab7326 to inhibit Grem1-induced inhibition of Smad1/5/9 phosphorylation via western blot analysis. Murine 4T1 breast cancer cells exposed to 10 ng/ml BMP2 which led to Smad1/5/9 phosphorylation. Co-incubation with 100 ng/ml rhGrem1 inhibited this BMP2-mediated Smad1/5/9 phosphorylation.

[2] = system: PyMT-B01 mouse breast cancer cells; experiment: PyMT-B01 breast cancer model in C57BL6 mice (BLI); assay type: in vivo
Description: PyMT-B01: 5-week old C57BL6 immunocompetent mice were subcutaneously (s.c) administered two 30 mg/kg doses of anti-Grem1 antibody Ab7326 or IgG control, Ab101.4, the week prior to tumour cell inoculation. 1×10^5 luciferase expressing PyMT-B01 mouse breast cancer cells were injected systemically via the caudal artery (CA).
Treatment continued twice weekly for the duration of the study. At weekly intervals, mice were administered 150 mg/kg luciferin intraperitoneally (i.p) and imaged using the Xenogen IVIS Bioluminescence Imaging System, and tumour burden was quantitated using Living Image software. The study ended on day 13 and day 22 post-tumour cell injection for the PyMT-B01 and MDA-MB-231 models respectively, according to animal ethics requirements. Organs were dissected upon culling animals and BLI imaged ex vivo for analysis of tumour metastasis.

With “Ab7326: allosteric inhibitory anti-Gremlin-1 antibody from a naïve human library; CDRs SEQ ID NOS 4 to 9; mouse IgG1 in mouse experiments” the “Reduction in MM tumour burden (BLI)” value (5TGM1.Bmx1 MM PCs; vs IgG control) was ~50%, the “Reduction in MM tumour burden (BLI)” value (5TGM1.Bmx1 MM PCs; vs IgG control, listed as Grem1-neutralising antibody) was “approximately 50%” and the “Tumour burden in the hindlimb bones (BLI)” value (5TGM1.Bmx1 MM PCs; antibody after tumour cell inoculation, vs IgG control) was “significant reduction”. For the same substance, the Splenic tumour burden (5TGM1.Bmx1 MM PCs; post-tumour cell inoculation group) was “downwards trend”, the “M-spike intensity relative to serum albumin (SPEP)” value (5TGM1.Bmx1 MM PCs; week 4, vs IgG control) was “significantly lower” and the “Increased tumour burden and reduced survival of AOM-treated animals” value (Vil1-Grem1 mice) was “partially abrogated”. For the same substance, the “Displacement of BMP4/7 from Gremlin 1-BMP complexes (SMAD phosphorylation)” value (“Displacement” below) ([1]; antibody 0.63 μg/ml) was 102.0%, the “Displacement” value ([1]; antibody 1.27 μg/ml) was 111.1% and the “Displacement” value ([1]; antibody 2.55 μg/ml) was 120.9%. For the same substance, the “Displacement” value ([1]; antibody 5.1 μg/ml) was 121.4%, the “Displacement” value ([1]; antibody 10.2 μg/ml) was 125.6% and the “Displacement” value ([1]; antibody 20.3 μg/ml) was 130.3%. The “Displacement” value ([1]; antibody 40.6 μg/ml) was 132.3%, the “Displacement” value ([1]; antibody 81.3 μg/ml) was 133.7% and the “Smad1/5/9 phosphorylation in 4T1 cells” value (rhGrem1) was “partially restored”. The “Reduction in overall tumour burden (BLI)” value ([2]; day 13, 30 mg/kg s.c. twice weekly, vs isotype control Ab101.4) was 35%, the “Liver metastatic tumour burden (BLI)” value ([2]; vs isotype control) was “downward trend” and the “Lung metastatic tumour burden (ex vivo BLI)” value ([2]; vs isotype control) was “statistically significant reduction”.
